pIC50: −log10 of the molar value. Calls of active or inactive are those of the source. The calls are words filed in the database; no cut-off is given here.
Legend:
[1] = tested on: Vero; experiment: (§1) Cytotoxicity against green monkey Vero cells assessed as reduction in cell viability at 24 to 48 hrs by MTT assay; type: toxicity, cell-based; set-up: Activity: concentration or dose not given beside the values; conditions: chlorocebus sabaeus, vero; time 24-48 hrs
[2] = as §1; type: toxicity, cell-based; set-up: Activity: concentration or dose not given beside the values; conditions: chlorocebus sabaeus, Vero cells; time 24-48 hrs
[3] = tested on: Chikungunya virus; experiment: (§2) Antiviral activity against CHIKV infected in green monkey Vero cells assessed as reduction in viral titer pretreated the cells with viral infection for 1 hr followed by compound addition and measured after 24 hrs by Foci forming unit assay; type: functional, organism-based
[4] = tested on: Chikungunya virus; experiment: Antiviral activity against CHIKV infected in green monkey Vero cells assessed as reduction in viral titer at 25 uM pretreated the cells with viral infection for 1 hr followed by compound addition and measured after 24 hrs by Foci forming unit assay (reference value: 8.55 log10FFU/ml); type: functional
[5] = as §2, with “Selectivity ratio of IC50 for antiviral” for “Antiviral”, “assay to CC50 for cytotoxicity against green monkey Vero cells” for “assay”; type: toxicity, cell-based
[6] = tested on: Chikungunya virus; experiment: Antiviral activity against CHIKV infected in green monkey Vero cells assessed as reduction in viral titer pretreated with compound for 24 hrs followed by viral infection by Foci forming unit assay; type: functional, organism-based
[7] = tested on: Chikungunya virus; experiment: Antiviral activity against CHIKV infected in green monkey Vero cells assessed as reduction in viral titer at 25 uM pretreated with compound for 24 hrs followed by viral infection by foci forming unit assay (reference value: 8.48 log10FFU/ml); type: functional
[8] = tested on: Chikungunya virus; experiment: Antiviral activity against CHIKV infected in green monkey Vero cells assessed as reduction in viral titer at 50 uM pretreated with compound for 24 hrs followed by viral infection by foci forming unit assay (reference value: 8.48 log10FFU/ml); type: functional
[9] = tested on: Chikungunya virus; experiment: Antiviral activity against CHIKV infected in green monkey Vero cells assessed as reduction in viral titer at 12.5 to 25 uM pretreated the cells with viral infection for 1 hr followed by compound addition and measured after 24 hrs by Foci forming unit assay (reference value: 8.55 log10FFU/ml); type: functional; conditions: dose 12.5-25 µM
[10] = tested on: Chikungunya virus; experiment: Antiviral activity against CHIKV infected in green monkey Vero cells assessed as reduction in viral titer at 6.25 uM pretreated with compound for 24 hrs followed by viral infection by Foci forming unit assay (reference value: 8.55 log10FFU/ml); type: functional
[11] = tested on: Chikungunya virus; experiment: Antiviral activity against CHIKV infected in green monkey Vero cells assessed as reduction in viral titer at 3.125 uM pretreated the cells with viral infection for 1 hr followed by compound addition and measured after 24 hrs by Foci forming unit assay (reference value: 8.55 log10FFU/ml); type: functional
[12] = tested on: Chikungunya virus; experiment: Antiviral activity against CHIKV infected in green monkey Vero cells assessed as inhibition of infectious virus preincubated the cells for 45 mins followed by compound addition and measured after 1 to 6 hrs post infection by time of addition assay; type: functional, organism-based; conditions: time 1-6 hrs
[13] = tested on: Chikungunya virus; experiment: Antiviral activity against CHIKV infected in green monkey Vero cells assessed as inhibition of infectious virus preincubated the cells for 45 mins followed by compound addition and measured after 5 to 6 hrs post infection by time of addition assay; type: functional; set-up: scale not given: the % may be the effect or the level left; conditions: time 5-6 hrs
[14] = tested on: Chikungunya virus; experiment: Antiviral activity against CHIKV infected in green monkey Vero cells assessed as inhibition of viral entry by entry assay; type: functional, organism-based
[15] = tested on: Chikungunya virus; experiment: Antiviral activity against CHIKV infected in green monkey Vero cells assessed as inhibition of viral post entry by entry bypass assay; type: functional, organism-based
[16] = tested on: Chikungunya virus; experiment: Antiviral activity against CHIKV infected in green monkey Vero cells assessed as reduction in viral titer at 50 uM pretreated with compound for 24 hrs followed by viral infection by Foci forming unit assay (reference value: 8.81 log10FFU/ml); type: functional
[17] = tested on: Chikungunya virus; experiment: Antiviral activity against CHIKV infected in green monkey Vero cells assessed as reduction in viral titer at 12.5 to 50 uM pretreated the cells with viral infection for 1 hr followed by compound addition and measured after 24 hrs by Foci forming unit assay (reference value: 8.55 log10FFU/ml); type: functional; conditions: dose 12.5-50 µM
[18] = tested on: Chikungunya virus; experiment: Antiviral activity against CHIKV infected in green monkey Vero cells assessed as reduction in viral titer at 6.25 uM pretreated with compound for 24 hrs followed by viral infection by Foci forming unit assay (reference value: 8.81 log10FFU/ml); type: functional, organism-based
[19] = tested on: Chikungunya virus; experiment: Antiviral activity against CHIKV infected in green monkey Vero cells assessed as reduction in viral titer at 1.56 uM pretreated the cells with viral infection for 1 hr followed by compound addition and measured after 24 hrs by Foci forming unit assay (reference value: 8.55 log10FFU/ml); type: functional

Structure (SMILES) | Activity [1] [%] | CC50 [2] [µM] | pIC50 [3] | selectivity ratio at 24 h [5] | also measured
COc1c(OCc2cn(-c3c(C)cc(C)cc3C)nn2)cc2oc3cc4c(c(O)c3c(=O)c2c1CC=C(C)C)C=CC(C)(C)O4 | < 90 |  |  |  | 
COc1c(OCC(=O)N2CCN(S(=O)(=O)c3ccc(Cl)cc3)CC2)cc2oc3cc4c(c(O)c3c(=O)c2c1CC=C(C)C)C=CC(C)(C)O4 | > 90 | 160 | 4.95 | 14.3 | Activity [4]: 7.39 log10FFU/ml
COc1c(OCC(=O)N2CCN(S(=O)(=O)c3ccc(C(F)(F)F)cc3)CC2)cc2oc3cc4c(c(O)c3c(=O)c2c1CC=C(C)C)C=CC(C)(C)O4 | > 90 | 160 | 5.19 | 25 | pIC50 [6]: 5.16; Activity [7]: ~7.29 log10FFU/ml; Activity [8]: ~7.29 log10FFU/ml; Activity [9]: 7.4 log10FFU/ml
COc1c(O)cc2oc3cc(O)c(CC=C(C)C)c(O)c3c(=O)c2c1CC=C(C)C [MANGOSTIN] | > 90 | 15.4 | 5.66 |  | Activity [10]: 7.28 log10FFU/ml; Activity [11]: 7.37 log10FFU/ml
COc1c(OCc2cn(-c3cc(Cl)ccc3Cl)nn2)cc2oc3cc4c(c(O)c3c(=O)c2c1CC=C(C)C)C=CC(C)(C)O4 | > 90 | 148 | 5.71 | 76 | Activity [12]: Active; Activity [13]: >90%; Activity [14]: Active; Largest Inhibitory Effect Was Observed
O=c1cc(-c2ccc(O)c(O)c2)oc2c(O)c(O)cc(O)c12 [HYPOLAETIN] | > 90 |  |  |  | 
CC(C)=CCc1c(O)c(CC=C(C)C)c2oc3c(O)ccc(O)c3c(=O)c2c1O [GARTANIN] | > 90 | 7.71 | 5.43 | 2.07 | Activity [10]: 7.42 log10FFU/ml
COc1c(OCc2cn(-c3ccc(Cl)cc3)nn2)cc2oc3cc4c(c(O)c3c(=O)c2c1CC=C(C)C)C=CC(C)(C)O4 | > 90 | 59.7 | 6.02 | 63.1 | Activity [12]: Active; Activity [13]: >90%; Activity [14]: Active; Activity [15]: Active
CC(C)=CCc1c(O)cc2oc3cc(O)c4c(c3c(=O)c2c1O)CCC(C)(C)O4 | > 90 | 11.4 | 5.39 | 2.79 | Activity [10]: 7.43 log10FFU/ml
COc1c(OCc2cn(-c3ccc(F)c(Cl)c3)nn2)cc2oc3cc4c(c(O)c3c(=O)c2c1CC=C(C)C)C=CC(C)(C)O4 | > 90 |  |  |  | 
COc1c(OCc2cn(-c3ccc(C)cc3C)nn2)cc2oc3cc4c(c(O)c3c(=O)c2c1CC=C(C)C)C=CC(C)(C)O4 | > 90 |  |  |  | 
Oc1cc(O)c2c(c1)O[C@@H](c1ccc(O)c(O)c1)[C@@H](O)C2 [(+)-EPICATECHIN] | > 90 | 206 | 5.06 | 23.8 | Activity [16]: 7.45 log10FFU/ml; Activity [17]: ~7.4 log10FFU/ml; Activity [18]: Active
COc1c(OCC#Cc2ccc(O)cc2)cc2oc3cc4c(c(O)c3c(=O)c2c1CC=C(C)C)C=CC(C)(C)O4 | > 90 |  |  |  | Activity [12]: Active
COc1c(OCc2cn(-c3cccc(C)c3)nn2)cc2oc3cc4c(c(O)c3c(=O)c2c1CC=C(C)C)C=CC(C)(C)O4 | > 90 |  |  |  | 
O[C@H]1[C@H](O)[C@@H](O)[C@H](O)[C@@H](O)[C@H]1O [INOSITOL] | > 90 |  |  |  | 
COc1c(OCC#Cc2ccc(C(C)=O)cc2)cc2oc3cc4c(c(O)c3c(=O)c2c1CC=C(C)C)C=CC(C)(C)O4 | > 90 | 194 | 6.52 | 637 | Activity [14]: Active; Activity [15]: Active; Highest Inhibitory Effect Observed
COc1c(OCc2cn(-c3c(C)cccc3C)nn2)cc2oc3cc4c(c(O)c3c(=O)c2c1CC=C(C)C)C=CC(C)(C)O4 | > 90 |  |  |  | Activity [15]: Active
COc1c(OCC#Cc2ccccc2)cc2oc3cc4c(c(O)c3c(=O)c2c1CC=C(C)C)C=CC(C)(C)O4 | > 90 |  |  |  | 
COc1c(OCc2cn(-c3ccc(C)c(C)c3)nn2)cc2oc3cc4c(c(O)c3c(=O)c2c1CC=C(C)C)C=CC(C)(C)O4 | > 90 |  |  |  | 

Structure (SMILES) | Activity [1] [%] | CC50 [2] [µM] | pIC50 [3] | selectivity ratio at 24 h [5] | also measured
C#CCOc1cc2oc3cc4c(c(O)c3c(=O)c2c(CC=C(C)C)c1OC)C=CC(C)(C)O4 | > 90 |  |  |  | 
COc1c(OCC(=O)N2CCN(S(=O)(=O)c3ccc(Br)cc3)CC2)cc2oc3cc4c(c(O)c3c(=O)c2c1CC=C(C)C)C=CC(C)(C)O4 | > 90 |  |  |  | 
COc1c(OCc2cn(-c3ccc(Br)cc3)nn2)cc2oc3cc4c(c(O)c3c(=O)c2c1CC=C(C)C)C=CC(C)(C)O4 | < 90 |  |  |  | 
C=C(C)C1Cc2c(cc3oc4cc(O)c(OC)c(CC=C(C)C)c4c(=O)c3c2O)O1 (centres undefined) [MANGOSTENONE F] | > 90 | 12.8 | 5.71 | 6.54 | pIC50 [6]: 4.66; Activity [11]: 7.42 log10FFU/ml
COc1c(OCc2cn(-c3ccccc3)nn2)cc2oc3cc4c(c(O)c3c(=O)c2c1CC=C(C)C)C=CC(C)(C)O4 | > 90 |  |  |  | 
COc1c(O)cc2oc3cc4c(c(O)c3c(=O)c2c1CC=C(C)C)C=CC(C)(C)O4 [MANGOSTANIN] | > 90 | 6.68 | 5.99 | 5.55 | Activity [11]: 6.42 log10FFU/ml; Activity [19]: 7.47 log10FFU/ml
O=c1c2cc(O)c(O)cc2oc2cc(O)cc(O)c12 | > 90 |  |  |  | 
COc1c(OCc2cn(-c3cccc(F)c3F)nn2)cc2oc3cc4c(c(O)c3c(=O)c2c1CC=C(C)C)C=CC(C)(C)O4 | > 90 |  |  |  | 
COc1c(OCc2cn(-c3cccc(C(F)(F)F)c3)nn2)cc2oc3cc4c(c(O)c3c(=O)c2c1CC=C(C)C)C=CC(C)(C)O4 | > 90 |  |  |  | 
COc1c(OCC(=O)N2CCN(S(=O)(=O)c3ccc(F)cc3)CC2)cc2oc3cc4c(c(O)c3c(=O)c2c1CC=C(C)C)C=CC(C)(C)O4 | > 90 | 191 | 4.58 | 7.3 | pIC50 [6]: 5.11; Activity [17]: 7.37 log10FFU/ml; Activity [7]: 7.21 log10FFU/ml; Activity [8]: 7.13 log10FFU/ml
COc1c(OCC(=O)N2CCN(S(=O)(=O)c3ccc(C#N)cc3)CC2)cc2oc3cc4c(c(O)c3c(=O)c2c1CC=C(C)C)C=CC(C)(C)O4 | > 90 | 223 | 5.73 | 119 | Activity [11]: 7.44 log10FFU/ml
COc1c(O)cc2oc3cc(O)c4c(c3c(=O)c2c1CC=C(C)C)OC(C)(C)CC4 | > 90 | 119 | 4.53 | 4.01 | Activity [16]: 7.62 log10FFU/ml; Activity [11]: 7.39 log10FFU/ml; Activity [18]: Active
COc1c(OCC(=O)N2CCN(S(=O)(=O)c3ccc(C)cc3)CC2)cc2oc3cc4c(c(O)c3c(=O)c2c1CC=C(C)C)C=CC(C)(C)O4 | > 90 |  |  |  | 
COc1c(OCC#Cc2ccc(C#N)cc2)cc2oc3cc4c(c(O)c3c(=O)c2c1CC=C(C)C)C=CC(C)(C)O4 | > 90 |  |  |  | 
COc1c(OCc2cn(-c3cc(C)ccc3C)nn2)cc2oc3cc4c(c(O)c3c(=O)c2c1CC=C(C)C)C=CC(C)(C)O4 | > 90 |  |  |  | 
COc1c(OCC#Cc2cccc(C(F)(F)F)c2)cc2oc3cc4c(c(O)c3c(=O)c2c1CC=C(C)C)C=CC(C)(C)O4 | > 90 |  |  |  | 
COc1c(OCC#Cc2ccccc2Br)cc2oc3cc4c(c(O)c3c(=O)c2c1CC=C(C)C)C=CC(C)(C)O4 | > 90 |  |  |  | 
COc1c(OCC#Cc2ccc(Cl)cc2)cc2oc3cc4c(c(O)c3c(=O)c2c1CC=C(C)C)C=CC(C)(C)O4 | > 90 |  |  |  | 
COc1c(OCC#Cc2ccc(I)cc2)cc2oc3cc4c(c(O)c3c(=O)c2c1CC=C(C)C)C=CC(C)(C)O4 | > 90 |  |  |  | 

From ChEMBL document CHEMBL6121014, “Novel α-mangostin derivatives as promising antiviral agents: Isolation, synthesis, and evaluation against chikungunya virus” (Eur J Med Chem, 2025)
